Article PMC12656219, “Cytotoxic Effects Induced by Combined Exposure of the Patulin, Ochratoxin A, and Acetamiprid to HK-2 and SK-N-SH Cell Lines” (Toxins, 2025)
Read-outs that look alike come from different tables or passages of the source.

Legend:
HK-2 cells = assay: CCK-8 cell viability, individual and combined exposure (CI/DRI analysis), HK-2 cells; format: cell-based, human; details: for DRI (dose reduction index): in PAT+OTA+ACM group, from low to high doses; for IC50: Homo sapiens
Protocol: (§1) The cytotoxicity of individual contaminations was evaluated using dose–response curves, from which half-maximal inhibitory concentration (IC50) values were calculated. Contaminant concentration and exposure duration were identified as the primary determinants influencing cytotoxic responses. Concentrations employed in the binary and ternary combination assays were selected based on IC50 values obtained from individual treatments in HK-2 and SK-N-SH cell lines.
(§2) Due to the high binding affinity of OTA for serum proteins, all treatments were conducted in medium supplemented with 2% FBS to minimize potential interference with toxicological outcomes. For cytotoxicity evaluation, 100 μL of cell suspension (8 × 10^3 cells/well) was seeded into 96-well plates. Upon reaching approximately 80% confluence, the culture medium was replaced with fresh medium containing varying concentrations of PAT, OTA, ACM, or their combinations. Cells were then incubated for 24 or 48 h, after which cell viability was assessed. Concentrations used for individual mycotoxin exposures are provided in Table S1, while those for binary and ternary mixture exposures are listed in Table S2.
(§3) Cells were diluted to a density of 8 × 10^3 cells/well and seeded in 96-well culture plates. After 24 h incubation, all cells were exposed to various concentrations of individual or combined contaminants and allowed to grow in an incubator for 24 h and 48 h, respectively. The cytotoxicity of the two different cell lines was determined using a CCK-8 kit according to the manufacturer’s instructions. After treatment, 10 μL CCK-8 solution was added to each well (10% culture volume) and incubated for 2 h at 37 °C. Absorbance values (A) were measured at 450 nm using a microplate reader (Thermo Fisher Scientific, Waltham, MA, USA). All treatments were performed in six replicates, and cell activity was calculated as follows: Cell Viability(%)=Aexperiment −A(blank)/Acontrol−A(blank)× 100
(§4) The dose–effect relationship for PAT, OTA, and ACM was calculated using the […] proposed by Chou and Talalay. fa/fu=D/Dm^m
(§5) D was the concentration of the contamination, fa was the cell proliferation inhibition rate, and fu was the unaffected fraction (fu = 1 − fa). Dm was the median effect dose for the 50% inhibition of cell proliferation. m was the coefficient indicating the shape of the dose–effect relationship (m = 1, m > 1, and m < 1 each indicated hyperbolic, sigmoidal, and flat sigmoidal dose–effect curves). The method employed the Dm parameter to measure the cytotoxicity of individual contamination.
(§6) When the composition of contaminations extended to binary or ternary, the interactions of multiple contaminations were assayed by means of combination index model (CI) based on the median effect principle, as the CI values calculated according to a generic formula: nCIx=∑j=1n(D)j/(Dx)j
(§7) ^n(CI)x referred to n kind of contaminant combined cell inhibition rate for x% of composite index, (D)j was referred to the joint action of n type of toxin to a total dose of x% cell inhibition rate, and (Dx)j referred to the combination of each contamination effect itself when dose of x% cell inhibition rate. Overall, the types of combined effects represented by CI = 0.9–1.1, CI < 0.9, and CI > 1.1 were additive, synergistic, and antagonistic, respectively.
(§8) In addition, the impact of contaminants on the combined effects was assessed using the dose reduction index (DRI). DRI indicated a multiplicative reduction in the dose required to produce the same effect when the contaminant was mixed compared to when used alone. […] The DRI was calculated as follows: n(CI)x=∑j=1n(D)j/(Dm)j=∑j=1n1/(DRI)j or (DRI)j=(D)j/(Dm)j
(§9) The IC50 values of the three different contaminations exposed to the two cell lines was calculated by GraphPad Prism 9.4.0 software. […]

SK-N-SH cells [1] = details: 24 h; cited from earlier work
SK-N-SH cells [2] = assay: CCK-8 cell viability, individual and combined exposure (CI/DRI analysis), SK-N-SH cells; format: cell-based, human; details: for IC50: Homo sapiens
Protocol: as §1, §2, §3, §4, §5, §6, §7, §8, §9

Caco-2 cells = details: cited from earlier work
[3] = HK-2 cells, 24 h, CCK-8, mean ± SEM, n = 6, read-out: IC50
[4] = HK-2 cells, 48 h, CCK-8, mean ± SEM, n = 6, read-out: IC50
[5] = SK-N-SH cells, 24 h, CCK-8, mean ± SEM, n = 6, read-out: IC50
[6] = SK-N-SH cells, 48 h, CCK-8, mean ± SEM, n = 6, read-out: IC50
[7] = SK-N-SH, 24 h, in PAT+OTA group

Structure (SMILES)	DRI (dose reduction index) (HK-2 cells; HK-2, 24 h)	IC50 (HK-2 cells; [3]) [µg/mL]	IC50 (HK-2 cells; [4]) [µg/mL]	IC50 (SK-N-SH cells [1]) [µM]	IC50 (SK-N-SH cells [2]; [5]) [µg/mL]	IC50 (SK-N-SH cells [2]; [6]) [µg/mL]	IC50 (HK-2 cells; HK-2, 24 h) [µg/mL]	IC50 (HK-2 cells; HK-2, 48 h) [µg/mL]	IC50 (SK-N-SH cells [2]; SK-N-SH, 24 h) [µg/mL]	IC50 (SK-N-SH cells [2]; SK-N-SH, 48 h) [µg/mL]	DRI (dose reduction index) (SK-N-SH cells [2]; [7])	DRI (dose reduction index) (SK-N-SH cells [2]; SK-N-SH, 48 h, in OTA+ACM group, Fa > 0.5)	IC50 (Caco-2 cells) [µM]
C/C(=N\C#N)N(C)Cc1ccc(Cl)nc1 [ACM, acetamiprid]	greater than 1	1160 ± 38.7	900.2 ± 4.1	~10600	700 ± 34.4	550 ± 31.6	–	–	–	–	–	–	–
C[C@@H]1Cc2c(Cl)cc(C(=O)N[C@@H](Cc3ccccc3)C(=O)O)c(O)c2C(=O)O1 [OTA, ochratoxin A]	–	–	–	–	–	–	2.5 ± 0.049	1 ± 0.021	7 ± 0.357	4.5 ± 0.415	greater than 1	greater than 1	145
O=C1C=C2C(=CCOC2O)O1 (centres unmarked) [PAT, Patulin]	greater than 1	0.5 ± 0.005	0.4 ± 0.006	–	0.5 ± 0.024	0.25 ± 0.001	–	–	–	–	greater than 1	–	16
